According to article PMC9532703, “A novel small molecule RK-019 inhibits FGFR2-amplification gastric cancer cell proliferation and induces apoptosis in vitro and in vivo” (Frontiers in Pharmacology, 2022):

Tests used:
Assay in all cases: Kinase selectivity panel
Format in all cases: biochemical
Conditions in all cases: read-out: Inhibition(%) @ 1 µM RK-019
ACK1(h) = biological target: T1, ACK1(h) (Homo sapiens, UniProt Q07912)
T1 construct: purchased Eurofins Discovery Services (KinaseProfiler)
Outline: (§1)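 Recombinant human kinase incubated with 1 µM compound; ATP-site competition binding quantified in vitro as inhibition ratio.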

AMPKα2(h) = biological target: T2, AMPKα2(h) (Homo sapiens, UniProt P54646)
T2 construct: purchased Eurofins Discovery Services (KinaseProfiler)
Outline: as §1

Abl (Q252H) (h) = biological target: T3, Abl (Q252H) (h) (Homo sapiens, UniProt P00519, Q252H)
T3 construct: purchased Eurofins Discovery Services (KinaseProfiler)
Outline: as §1

Arg(h) = biological target: T4, Arg(h) (Homo sapiens, UniProt P42684)
T4 construct: purchased Eurofins Discovery Services (KinaseProfiler)
Outline: as §1

Arg(m) = biological target: T5, Arg(m) (Mus musculus, UniProt Q4JIM5)
T5 construct: purchased Eurofins Discovery Services (KinaseProfiler)

CDK2/cyclinE(h) = biological target: T6, CDK2/cyclinE(h) (Homo sapiens, UniProt P24941)
T6 construct: purchased Eurofins Discovery Services (KinaseProfiler)
Outline: as §1

CHK2(h) = biological target: T7, CHK2(h) (Homo sapiens, UniProt O96017)
T7 construct: purchased Eurofins Discovery Services (KinaseProfiler)
Outline: as §1

CK1γ3(h) = biological target: T8, CK1γ3(h) (Homo sapiens, UniProt Q9Y6M4)
T8 construct: purchased Eurofins Discovery Services (KinaseProfiler)
Outline: as §1

CK1ε(h) = biological target: T9, CK1ε(h) (Homo sapiens, UniProt P49674)
T9 construct: purchased Eurofins Discovery Services (KinaseProfiler)
Outline: as §1

CK2(h) = biological target: T10, CK2(h) (Homo sapiens, UniProt P68400)
T10 construct: purchased Eurofins Discovery Services (KinaseProfiler)
Outline: as §1

CLK4(h) = biological target: T11, CLK4(h) (Homo sapiens, UniProt Q9HAZ1)
T11 construct: purchased Eurofins Discovery Services (KinaseProfiler)
Outline: as §1

CaMKI(h) = biological target: T12, CaMKI(h) (Homo sapiens, UniProt Q14012)
T12 construct: purchased Eurofins Discovery Services (KinaseProfiler)
Outline: as §1

CaMKIIβ(h) = biological target: T13, CaMKIIβ(h) (Homo sapiens, UniProt Q13554)
T13 construct: purchased Eurofins Discovery Services (KinaseProfiler)
Outline: as §1

DCAMKL2(h) = biological target: T14, DCAMKL2(h) (Homo sapiens, UniProt Q8N568)
T14 construct: purchased Eurofins Discovery Services (KinaseProfiler)
Outline: as §1

DYRK3(h) = biological target: T15, DYRK3(h) (Homo sapiens, UniProt O43781)
T15 construct: purchased Eurofins Discovery Services (KinaseProfiler)
Outline: as §1

EphB4(h) = biological target: T16, EphB4(h) (Homo sapiens, UniProt P54760)
T16 construct: purchased Eurofins Discovery Services (KinaseProfiler)
Outline: as §1

GCN2(h) = biological target: T17, GCN2(h) (Homo sapiens, UniProt Q9P2K8)
T17 construct: purchased Eurofins Discovery Services (KinaseProfiler)
Outline: as §1

IKKα(h) = biological target: T18, IKKα(h) (Homo sapiens, UniProt O15111)
T18 construct: purchased Eurofins Discovery Services (KinaseProfiler)
Outline: as §1

JAK3(h) = biological target: T19, JAK3(h) (Homo sapiens, UniProt P52333)
T19 construct: purchased Eurofins Discovery Services (KinaseProfiler)
Outline: as §1

MAP4K3(h) = biological target: T20, MAP4K3(h) (Homo sapiens, UniProt Q8IVH8)
T20 construct: purchased Eurofins Discovery Services (KinaseProfiler)
Outline: as §1

MAPK2(h) = biological target: T21, MAPK2(h) (Homo sapiens, UniProt P28482)
T21 construct: purchased Eurofins Discovery Services (KinaseProfiler)
Outline: as §1

MEKK2(h) = biological target: T22, MEKK2(h) (Homo sapiens, UniProt Q9Y2U5)
T22 construct: purchased Eurofins Discovery Services (KinaseProfiler)
Outline: as §1

MKK3(h) = biological target: T23, MKK3(h) (Homo sapiens, UniProt P46734)
T23 construct: purchased Eurofins Discovery Services (KinaseProfiler)
Outline: as §1

MSK1(h) = biological target: T24, MSK1(h) (Homo sapiens, UniProt O75582)
T24 construct: purchased Eurofins Discovery Services (KinaseProfiler)
Outline: as §1

MSK2(h) = biological target: T25, MSK2(h) (Homo sapiens, UniProt O75676)
T25 construct: purchased Eurofins Discovery Services (KinaseProfiler)
Outline: as §1

MST1(h) = biological target: T26, MST1(h) (Homo sapiens, UniProt Q13043)
T26 construct: purchased Eurofins Discovery Services (KinaseProfiler)
Outline: as §1

MST2(h) = biological target: T27, MST2(h) (Homo sapiens, UniProt Q13188)
T27 construct: purchased Eurofins Discovery Services (KinaseProfiler)
Outline: as §1

PEK(h) = biological target: T28, PEK(h) (Homo sapiens, UniProt Q9NZJ5)
T28 construct: purchased Eurofins Discovery Services (KinaseProfiler)
Outline: as §1

PI3 Kinase (p120g)(h) = biological target: T29, PI3 Kinase (p120g)(h) (Homo sapiens, UniProt P48736)
T29 construct: purchased Eurofins Discovery Services (KinaseProfiler)
Outline: as §1

PKCμ(h) = biological target: T30, PKCμ(h) (Homo sapiens, UniProt Q15139)
T30 construct: purchased Eurofins Discovery Services (KinaseProfiler)
Outline: as §1

PKG1β(h) = biological target: T31, PKG1β(h) (Homo sapiens, UniProt Q13976)
T31 construct: purchased Eurofins Discovery Services (KinaseProfiler)
Outline: as §1

SAPK2b(h) = biological target: T32, SAPK2b(h) (Homo sapiens, UniProt Q15759)
T32 construct: purchased Eurofins Discovery Services (KinaseProfiler)
Outline: as §1

SBK1(h) = biological target: T33, SBK1(h) (Homo sapiens, UniProt Q52WX2)
T33 construct: purchased Eurofins Discovery Services (KinaseProfiler)
Outline: as §1

STK33(h) = biological target: T34, STK33(h) (Homo sapiens, UniProt Q9BYT3)
T34 construct: purchased Eurofins Discovery Services (KinaseProfiler)
Outline: as §1

Src(T341M)(h) = biological target: T35, Src(T341M)(h) (Homo sapiens, UniProt P12931, T341M)
T35 construct: purchased Eurofins Discovery Services (KinaseProfiler)
Outline: as §1

TLK1(h) = biological target: T36, TLK1(h) (Homo sapiens, UniProt Q9UKI8)
T36 construct: purchased Eurofins Discovery Services (KinaseProfiler)
Outline: as §1

Wee1B(h) = biological target: T37, Wee1B(h) (Homo sapiens, UniProt P0C1S8)
T37 construct: purchased Eurofins Discovery Services (KinaseProfiler)
Outline: as §1

T9 sequence (P49674 whole entry): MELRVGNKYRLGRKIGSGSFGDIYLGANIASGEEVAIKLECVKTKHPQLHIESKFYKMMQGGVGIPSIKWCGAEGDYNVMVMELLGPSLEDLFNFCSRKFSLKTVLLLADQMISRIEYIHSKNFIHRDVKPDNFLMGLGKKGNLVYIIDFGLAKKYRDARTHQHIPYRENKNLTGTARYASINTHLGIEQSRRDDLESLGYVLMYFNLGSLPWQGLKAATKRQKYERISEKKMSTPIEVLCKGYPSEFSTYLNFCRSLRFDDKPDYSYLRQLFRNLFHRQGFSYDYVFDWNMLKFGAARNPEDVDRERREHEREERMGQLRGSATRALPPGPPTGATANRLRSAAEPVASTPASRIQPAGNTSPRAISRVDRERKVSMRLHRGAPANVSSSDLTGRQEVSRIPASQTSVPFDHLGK
T13 sequence (Q13554 whole entry): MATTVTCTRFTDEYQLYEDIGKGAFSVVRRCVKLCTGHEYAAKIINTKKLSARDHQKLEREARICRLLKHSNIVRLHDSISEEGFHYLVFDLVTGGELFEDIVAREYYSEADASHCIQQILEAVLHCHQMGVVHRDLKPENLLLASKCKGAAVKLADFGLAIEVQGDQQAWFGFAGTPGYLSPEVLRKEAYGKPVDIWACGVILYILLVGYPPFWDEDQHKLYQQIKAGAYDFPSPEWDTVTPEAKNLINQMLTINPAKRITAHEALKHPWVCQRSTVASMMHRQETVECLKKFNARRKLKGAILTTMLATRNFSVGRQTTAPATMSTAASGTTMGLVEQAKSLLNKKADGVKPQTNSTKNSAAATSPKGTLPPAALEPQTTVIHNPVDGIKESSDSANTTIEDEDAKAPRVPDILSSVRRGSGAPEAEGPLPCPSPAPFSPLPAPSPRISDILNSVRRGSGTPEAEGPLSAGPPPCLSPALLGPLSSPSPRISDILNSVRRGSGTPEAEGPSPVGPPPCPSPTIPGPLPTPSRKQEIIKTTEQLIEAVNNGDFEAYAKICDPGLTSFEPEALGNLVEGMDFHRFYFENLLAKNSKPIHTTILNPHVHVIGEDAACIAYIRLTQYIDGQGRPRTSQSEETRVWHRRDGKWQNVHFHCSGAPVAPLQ
T30 sequence (Q15139 whole entry): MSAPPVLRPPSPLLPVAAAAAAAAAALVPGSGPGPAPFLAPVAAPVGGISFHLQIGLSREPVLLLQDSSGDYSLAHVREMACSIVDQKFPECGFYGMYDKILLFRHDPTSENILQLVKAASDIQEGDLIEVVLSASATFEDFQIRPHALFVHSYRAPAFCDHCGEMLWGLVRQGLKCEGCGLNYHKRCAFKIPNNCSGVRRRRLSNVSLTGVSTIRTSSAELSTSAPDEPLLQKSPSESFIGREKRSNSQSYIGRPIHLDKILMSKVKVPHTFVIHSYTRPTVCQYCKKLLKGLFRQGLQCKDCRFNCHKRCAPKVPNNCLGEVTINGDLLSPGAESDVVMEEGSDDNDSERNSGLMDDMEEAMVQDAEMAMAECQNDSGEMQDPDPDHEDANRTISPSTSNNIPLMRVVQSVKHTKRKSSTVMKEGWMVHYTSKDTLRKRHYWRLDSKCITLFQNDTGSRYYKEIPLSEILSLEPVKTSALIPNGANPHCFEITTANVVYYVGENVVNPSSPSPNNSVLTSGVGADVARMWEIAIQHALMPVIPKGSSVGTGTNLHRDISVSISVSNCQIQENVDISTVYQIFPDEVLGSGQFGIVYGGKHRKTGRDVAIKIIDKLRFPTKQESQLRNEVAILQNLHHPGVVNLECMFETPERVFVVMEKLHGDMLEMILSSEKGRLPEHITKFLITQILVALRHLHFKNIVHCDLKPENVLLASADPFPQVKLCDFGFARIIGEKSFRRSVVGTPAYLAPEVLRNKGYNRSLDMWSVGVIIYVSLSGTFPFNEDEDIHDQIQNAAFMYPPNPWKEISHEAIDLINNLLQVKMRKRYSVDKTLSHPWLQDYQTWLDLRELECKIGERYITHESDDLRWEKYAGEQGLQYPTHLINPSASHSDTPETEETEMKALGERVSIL
T4 sequence (P42684 whole entry): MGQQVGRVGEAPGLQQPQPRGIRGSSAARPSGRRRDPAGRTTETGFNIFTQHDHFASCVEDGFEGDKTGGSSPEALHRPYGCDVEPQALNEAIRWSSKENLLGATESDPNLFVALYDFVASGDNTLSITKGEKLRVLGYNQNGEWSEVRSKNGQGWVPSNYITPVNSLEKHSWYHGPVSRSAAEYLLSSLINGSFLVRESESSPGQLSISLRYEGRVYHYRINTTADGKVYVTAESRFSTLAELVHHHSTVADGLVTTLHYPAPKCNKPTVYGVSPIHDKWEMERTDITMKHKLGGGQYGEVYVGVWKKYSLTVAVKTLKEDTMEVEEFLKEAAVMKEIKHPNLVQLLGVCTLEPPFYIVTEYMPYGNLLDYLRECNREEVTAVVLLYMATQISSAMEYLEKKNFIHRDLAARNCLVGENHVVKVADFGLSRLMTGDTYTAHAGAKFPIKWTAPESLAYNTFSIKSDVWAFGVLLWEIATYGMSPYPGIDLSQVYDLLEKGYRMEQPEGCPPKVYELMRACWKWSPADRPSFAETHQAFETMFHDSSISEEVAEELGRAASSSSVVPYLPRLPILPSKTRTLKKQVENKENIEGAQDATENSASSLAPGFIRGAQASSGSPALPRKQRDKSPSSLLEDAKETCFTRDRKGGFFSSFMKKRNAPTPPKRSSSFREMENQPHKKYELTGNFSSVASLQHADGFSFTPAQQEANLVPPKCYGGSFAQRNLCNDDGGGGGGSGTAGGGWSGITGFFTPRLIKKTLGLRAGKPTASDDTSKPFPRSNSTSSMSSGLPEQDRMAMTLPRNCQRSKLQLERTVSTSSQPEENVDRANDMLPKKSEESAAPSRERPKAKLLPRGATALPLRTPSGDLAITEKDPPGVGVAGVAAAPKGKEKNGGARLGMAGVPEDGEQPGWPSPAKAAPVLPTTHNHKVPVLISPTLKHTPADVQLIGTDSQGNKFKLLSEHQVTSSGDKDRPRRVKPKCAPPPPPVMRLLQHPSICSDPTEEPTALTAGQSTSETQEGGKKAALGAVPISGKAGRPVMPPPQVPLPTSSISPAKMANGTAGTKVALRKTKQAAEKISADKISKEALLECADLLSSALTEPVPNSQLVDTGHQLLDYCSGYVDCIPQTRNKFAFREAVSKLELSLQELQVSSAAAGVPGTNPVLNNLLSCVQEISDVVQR
T19 sequence (P52333 whole entry): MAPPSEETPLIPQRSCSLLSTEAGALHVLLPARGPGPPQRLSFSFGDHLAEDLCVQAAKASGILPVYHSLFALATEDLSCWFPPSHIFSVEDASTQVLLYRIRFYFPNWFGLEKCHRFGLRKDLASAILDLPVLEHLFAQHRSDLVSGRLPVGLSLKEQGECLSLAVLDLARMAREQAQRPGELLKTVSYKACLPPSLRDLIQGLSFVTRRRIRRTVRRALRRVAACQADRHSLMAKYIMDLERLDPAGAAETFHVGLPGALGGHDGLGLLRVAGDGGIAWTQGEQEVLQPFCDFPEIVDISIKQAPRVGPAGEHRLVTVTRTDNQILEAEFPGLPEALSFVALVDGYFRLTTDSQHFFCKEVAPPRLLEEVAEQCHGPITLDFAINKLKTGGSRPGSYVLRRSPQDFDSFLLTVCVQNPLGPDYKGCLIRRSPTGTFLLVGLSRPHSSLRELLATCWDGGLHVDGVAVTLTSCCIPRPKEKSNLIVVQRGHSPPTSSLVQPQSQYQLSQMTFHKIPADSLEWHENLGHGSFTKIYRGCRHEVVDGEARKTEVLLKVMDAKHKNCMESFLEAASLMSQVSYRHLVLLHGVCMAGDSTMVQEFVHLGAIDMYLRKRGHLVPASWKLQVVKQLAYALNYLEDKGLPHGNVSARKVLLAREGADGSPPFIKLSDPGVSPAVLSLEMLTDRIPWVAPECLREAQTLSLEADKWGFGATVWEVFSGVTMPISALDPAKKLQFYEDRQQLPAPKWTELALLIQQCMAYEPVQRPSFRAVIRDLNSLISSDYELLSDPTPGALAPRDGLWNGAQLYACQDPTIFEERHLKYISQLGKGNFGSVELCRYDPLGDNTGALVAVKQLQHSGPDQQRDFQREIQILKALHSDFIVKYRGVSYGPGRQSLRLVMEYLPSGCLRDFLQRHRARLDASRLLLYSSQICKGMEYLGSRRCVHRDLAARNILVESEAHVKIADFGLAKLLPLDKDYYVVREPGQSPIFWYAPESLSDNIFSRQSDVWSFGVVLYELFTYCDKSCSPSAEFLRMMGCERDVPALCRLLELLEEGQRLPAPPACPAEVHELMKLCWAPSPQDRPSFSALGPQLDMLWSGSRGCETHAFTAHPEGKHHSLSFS
T18 sequence (O15111 whole entry): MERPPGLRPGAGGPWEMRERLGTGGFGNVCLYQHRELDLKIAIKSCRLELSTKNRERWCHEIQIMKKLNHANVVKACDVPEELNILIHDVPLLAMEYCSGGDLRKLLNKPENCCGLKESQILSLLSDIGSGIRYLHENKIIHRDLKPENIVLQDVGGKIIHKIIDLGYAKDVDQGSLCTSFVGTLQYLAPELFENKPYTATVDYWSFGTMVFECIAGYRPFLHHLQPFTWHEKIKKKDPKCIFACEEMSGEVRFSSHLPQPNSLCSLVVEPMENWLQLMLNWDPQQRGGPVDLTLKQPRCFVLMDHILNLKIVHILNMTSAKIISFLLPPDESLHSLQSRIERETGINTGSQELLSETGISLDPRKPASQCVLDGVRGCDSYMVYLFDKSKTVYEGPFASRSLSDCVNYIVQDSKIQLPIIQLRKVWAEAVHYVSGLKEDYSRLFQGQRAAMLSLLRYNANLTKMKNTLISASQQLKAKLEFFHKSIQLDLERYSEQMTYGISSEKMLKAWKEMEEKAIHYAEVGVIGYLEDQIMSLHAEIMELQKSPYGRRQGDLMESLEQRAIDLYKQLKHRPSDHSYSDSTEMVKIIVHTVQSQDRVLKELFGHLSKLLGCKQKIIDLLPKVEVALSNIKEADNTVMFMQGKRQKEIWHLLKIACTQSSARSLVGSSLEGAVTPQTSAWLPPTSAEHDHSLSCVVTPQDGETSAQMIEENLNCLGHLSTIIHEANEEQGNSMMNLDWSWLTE

Question: What does the source list for `COc1cc(OC)cc(N(CCN[C@H](C)CO)c2ccc3ncc(-c4cnn(C)c4)c(=O)n3c2)c1` [RK-019, (R)-7-((3,5-dimethoxyphenyl) (2-((1-hydroxypropan-2-yl)amino)ethyl)amino)-3-(1-methyl-1H-pyrazol-4-yl)-4H-pyrido [1,2-a]pyrimidin-4-one]?
Answer: activity at 1 µM (ACK1(h)): 104%; activity at 1 µM (AMPKα2(h)): 109%; activity at 1 µM (Abl (Q252H) (h)): 46%; activity at 1 µM (Arg(h)): 86%; activity at 1 µM (Arg(m)): 88%; activity at 1 µM (CDK2/cyclinE(h)): 123%; activity at 1 µM (CHK2(h)): 96%; activity at 1 µM (CK1γ3(h)): 87%; activity at 1 µM (CK1ε(h)): 99%; activity at 1 µM (CK2(h)): 112%; activity at 1 µM (CLK4(h)): 89%; activity at 1 µM (CaMKI(h)): 101%; activity at 1 µM (CaMKIIβ(h)): 80%; activity at 1 µM (DCAMKL2(h)): 126%; activity at 1 µM (DYRK3(h)): 88%; activity at 1 µM (EphB4(h)): 109%; activity at 1 µM (GCN2(h)): 134%; activity at 1 µM (IKKα(h)): 100%; activity at 1 µM (JAK3(h)): 97%; activity at 1 µM (MAP4K3(h)): 132%; activity at 1 µM (MAPK2(h)): 115%; activity at 1 µM (MEKK2(h)): 96%; activity at 1 µM (MKK3(h)): 96%; activity at 1 µM (MSK1(h)): 95%; activity at 1 µM (MSK2(h)): 101%; activity at 1 µM (MST1(h)): 121%; activity at 1 µM (MST2(h)): 97%; activity at 1 µM (PEK(h)): 85%; activity at 1 µM (PI3 Kinase (p120g)(h)): 102%; activity at 1 µM (PKCμ(h)): 107%; activity at 1 µM (PKG1β(h)): 103%; activity at 1 µM (SAPK2b(h)): 94%; activity at 1 µM (SBK1(h)): 96%; activity at 1 µM (STK33(h)): 98%; activity at 1 µM (Src(T341M)(h)): 98%; activity at 1 µM (TLK1(h)): 98%; activity at 1 µM (Wee1B(h)): 107%
